Measured values as given in the NIST ThermoML archive (doi:10.1016/j.tca.2009.09.001).
Numbers after ± are expanded uncertainties.

Tests used:
[1] = Molar enthalpy of transition or fusion; details: Crystal; DSC
[2] = Crystal; DTA

Row | Molar enthalpy of transition or fusion [1] [kcal/mol] | Normal melting temperature [2] [°C] | SMILES
1 | 8.22 ± 0.239 | 99 ± 1 | O[C@@H]1CCCC[C@H]1O (relative stereo) [trans-1,2-cyclohexanediol]
2 | 3.59 ± 0.12 | 104 ± 1 | O[C@H]1CCCC[C@@H]1O [1,2-cyclohexanediol, (1S,2S)-]
3 | 5.35 ± 0.167 | 171 ± 1 | O=C(O)[C@H](O)[C@@H](O)C(=O)O [(2R,3R)-2,3-dihydroxybutanedioic acid]
4 | 4.3 ± 0.143 | 108 ± 1 | O[C@@H]1CCCC[C@H]1O [(1R,2R)-1,2-cyclohexanediol]
